Reference: patent publication US11542508B2, “Isolated polynucleotides and polypeptides and methods of using same for expressing an expression product of interest” (priority 2016, dated 2023)
“Also recorded” adds a separate entry of the source.

Columns and labels:
phi3T = experiment: Growth dynamics of phage-infected cultures (phi3T infection of B. subtilis 168); format: cell-based; conditions: B. subtilis 168 infected by phi3T at MOI=0.1, LB supplemented with synthesized peptide
Experimental: Specifically, overnight cultures of B. subtilis strain 168 were diluted 1:50 in LB media supplemented with 0.1 mM MnCl2 and 5 mM MgCl2, and incubated at 37° C. with shaking until reaching optical density (O.D) 600 nm=0.5. Phages (phi29, phi105, rho14 or phi3T) were added to the bacterial culture at MOI=1 and incubated for 3 hours. The media were centrifuged at 4000 rpm for 10 minutes at 4° C. and the supernatant was filtered with 0.2 μm filer (GE Healthcare Life Sciences, Whatman, CAT #10462200). Phages and large molecules were further filtered out from the media by using Amicon Ultra centrifugal filters at a cutoff of 3,000 NMWL (3 kDa) (Milipore, CAT #UFC900324). A plaque assay was performed in order to verify that no phages were left in the medium.
7.5 mg (per reaction) of Proteinase K-Agarose from Tritirachium album (Sigma, CAT #P9290) were washed twice with 750 μl of sterile water and then resuspended with 750 μl of LB supplemented with 0.1 mM MnCl2 and 5 mM MgCl2. Following, the tubes were centrifuged again and the supernatant was discarded. 1.5 ml of phi3T-derived conditioned medium or control medium was added to a tube containing the washed proteinase K. The media were incubated for 2 hours at 37° C. with the proteinase K. The media were centrifuged and the supernatants were collected for the infection assay.
(§1) Overnight cultures of bacteria were diluted 1:100 in LB media and incubated at 37° C. with shaking until reaching O.D 600 nm=0.1. The bacterial culture was centrifuged at 4000 rpm for 10 minutes at room temperature. The supernatant was discarded and the pellet was resuspended in LB medium supplemented with 0.1 mM MnCl2 and 5 mM MgCl2 at 10% of the initial volume. The concentrated bacterial culture was added to conditioned medium or medium supplemented with synthesized arbitrium peptide in a ratio of 1:9 (bacteria to medium) and incubated for 1 hour at room temperature. Following, the culture was infected with phages at MOI=0.1. Optical density measurements at a wavelength of 600 nm were taken using a TECAN Infinite 200 plate reader in a 96-wells plate.

spBeta = experiment: Growth dynamics of phage-infected cultures (spBeta infection of B. subtilis BEST7003); format: cell-based; conditions: B. subtilis BEST7003 infected by spBeta at MOI=0.1, LB supplemented with synthesized peptide
Experimental: as §1

phi3T AimR receptor = target: T1, phi3T AimR receptor (Bacillus phage phi3T, UniProt P0DOE3); format: binding; conditions: AimR 200 nM, peptide 9-4000 nM
T1 construct: made in house; host or cells: E. coli BL21(DE3), pET28a
T1 sequence (P0DOE3 whole entry, looked up): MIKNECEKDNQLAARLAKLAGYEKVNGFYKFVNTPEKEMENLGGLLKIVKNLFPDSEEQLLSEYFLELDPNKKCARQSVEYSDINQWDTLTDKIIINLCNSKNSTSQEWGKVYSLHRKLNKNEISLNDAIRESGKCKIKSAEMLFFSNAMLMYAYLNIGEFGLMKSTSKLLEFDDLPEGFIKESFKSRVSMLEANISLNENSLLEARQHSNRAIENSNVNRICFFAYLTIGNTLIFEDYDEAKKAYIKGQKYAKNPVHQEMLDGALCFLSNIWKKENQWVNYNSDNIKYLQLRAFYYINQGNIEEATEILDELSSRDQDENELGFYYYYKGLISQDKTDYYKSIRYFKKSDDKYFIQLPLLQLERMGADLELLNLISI
Experimental: Two-step purified 6×His-tagged AimR stored in Tris/NaCl buffer (50 mM Tris pH 8.0, 150 mM NaCl, 2 mM TCEP) at −80° C. was thawed on ice and centrifuged at 21,000 g for 10 minutes at 4° C. prior to analysis. Peptides [SAIRGA (SEQ ID NO: 269) and GMPRGA (SEQ ID NO: 271)] were solubilized in 50 mM Tris-HCl pH 8.0, 150 mM NaCl to a final concentration of 100 μM. AimR was diluted to 200 nM and was incubated with 16 different peptide concentrations varying between 9-4000 nM, which were prepared in Tris/NaCl buffer containing 0.1% [v/v] Pluronic acid (NanoTemper). Roughly 3 μl were loaded into NT.LabelFree Zero-Background Premium Coated Capillaries (NanoTemper) and inserted into a Monolith NT.LabelFree device (NanoTemper). MST experiments were performed at 60% MST power (infra-red laser) and 20% LED power at 23° C. using the Monolith NT.LabelFree instrument (Nanotemper). Ratios between normalized initial fluorescence and post-temperature-jump and thermophoresis were calculated and averaged from 3 independent runs (runs were incubated for 20 minutes at room temperature before the measurement). A plot of fluorescence ratios versus peptide concentration was used to assess the binding capacity of the phage protein and its cognate peptide ligand.

AimR = target: T2, AimR (Bacillus phage phi3T, UniProt P0DOE3); experiment: Analytical gel filtration of purified AimR (oligomeric state); conditions: AimR:SAIRGA 1:2, AimR:GMPRGA 1:1 molar ratio
T2 construct: made in house; host or cells: E. coli BL21(DE3), pET28a
T2 sequence (P0DOE3 whole entry, looked up): T1 sequence (P0DOE3 whole entry, looked up)
Experimental: Following, AimR was expressed in E. coli BL21(DE3) cells with a C-terminal 6× His-tag. Expression was performed at 15° C. for about ˜18 hours using 200 μM IPTG (Isopropyl β-D-1-thiogalactopyranoside) as an inducer. The cells pellet was resuspended in lysis buffer [50 mM Tris pH 8, 0.3M NaCl, 20 mM Imidazole, 2 mM DTT, 0.2 mg/ml Lysozyme, 1 μg/ml DNAse, protease inhibitor cocktail (Calbiochem)], disrupted by a cell disrupter at 4° C. and clarified at 15,000 g for 30 minutes. The clarified lysate was loaded onto a HisTrap_FF_5 ml column (GE Healthcare) and washed with buffer containing 50 mM Tris pH 8, 0.3 M NaCl, 20 mM imidazole and 2 mM DTT. AimR was eluted from the column in one step with the same buffer containing 0.5 M imidazole. Fractions containing AimR were pooled and injected to a size exclusion column (HiLoad_16/60_Superdex_200_prepgrade,GE_Healthcare) equilibrated with 20 mM Tris pH 8, 0.3 M NaCl, 2 mM TCEP. Fractions containing pure AimR were pooled and flash frozen in aliquots using liquid nitrogen.
Pure AimR was injected to an analytical gel filtration column (Superdex_200_Increase_10/30 GL, GE Healthcare) equilibrated with buffer containing 20 mM Tris pH 8, 0.3 M NaCl, 2 mM TCEP. […]

## AIRGA: shorter, 5 amino acids version of the SAIRGA peptide
phi3T
  effect on the phage infection dynamics (culture lysis, growth curve): neither observed; also recorded: do not guide lysogeny

## GMPRGA: predicted mature AimP-derived arbitrium peptide of spBeta
spBeta
  effect on lysogeny / infection dynamics of spBeta: promoted lysogeny of spBeta
phi3T
  effect on the phage infection dynamics (culture lysis, growth curve): did not affect the lysogeny profile of phi3T
phi3T AimR receptor
  specific binding to the phi3T AimR receptor (MST): did not show specific binding
AimR
  AimR oligomeric state (migration in gel filtration column): did not lead to a change in the AimR oligomeric state

## PhrC: a known quorum sensing peptide of B. subtilis (ERGMT)
phi3T
  effect on the phage infection dynamics (culture lysis, growth curve): neither observed

## SAIRG: shorter, 5 amino acids version of the SAIRGA peptide
phi3T
  effect on the phage infection dynamics (culture lysis, growth curve): neither observed; also recorded: do not guide lysogeny
